Measurements published in ChEMBL document CHEMBL3885881, “DrugMatrix”.

Species on record: Rattus norvegicus
Assay: DrugMatrix - Regimen: Daily Repeat
Format: toxicity, organism-based, Sprague-Dawley
Set-up: regimen Daily Repeat, gender Male, age 6-8 weeks
Details: in vivo, sc, route subcutaneous, […]; for ABSOLUTE BASOPHIL / ABSOLUTE EOSINOPHIL / ABSOLUTE LYMPHOCYTE / ABSOLUTE MONOCYTE / ABSOLUTE SEGMENTED NEUTROPHIL / BASOPHIL / EOSINOPHIL / ERYTHROCYTE COUNT / HEMATOCRIT / HEMOGLOBIN / LEUKOCYTE COUNT / LYMPHOCYTE / MEAN CORPUSCULAR HEMOGLOBIN / MEAN CORPUSCULAR HEMOGLOBIN CONCENTRATION / MEAN CORPUSCULAR VOLUME / MONOCYTE / NEUTROPHIL / NUCLEATED RED BLOOD CELLS / PLATELET COUNT: tissue Blood; for ALANINE AMINOTRANSFERASE / ALBUMIN / ALKALINE PHOSPHATASE / ASPARTATE AMINOTRANSFERASE / BLOOD UREA NITROGEN / CARBON DIOXIDE / CHLORIDE / CHOLESTEROL / CREATINE PHOSPHOKINASE / CREATININE / GLUCOSE / LACTATE DEHYDROGENASE / LIPASE / PHOSPHORUS / POTASSIUM / SODIUM / TOTAL BILIRUBIN / TOTAL PROTEIN / URIC ACID: tissue Plasma
[1] = 15 mg/kg, 72 h, dose level Low, time 3 day
[2] = 15 mg/kg, 120 h, dose level Low, time 5 day
[3] = 750 mg/kg, 72 h, dose level High, time 3 day
[4] = 750 mg/kg, 120 h, dose level High, time 5 day

SMILES: CC=CC(=O)N(CC)c1ccccc1C
- ABSOLUTE BASOPHIL [1]: 0 CELLS/uL
- ABSOLUTE EOSINOPHIL [1]: 112 CELLS/uL
- ABSOLUTE LYMPHOCYTE [1]: 10089.67 CELLS/uL
- ABSOLUTE MONOCYTE [1]: 82.33 CELLS/uL
- ABSOLUTE SEGMENTED NEUTROPHIL [1]: 1549.33 CELLS/uL
- BASOPHIL [1]: 0%
- EOSINOPHIL [1]: 1%
- ERYTHROCYTE COUNT [1]: 5.39 x10E6/uL
- HEMATOCRIT [1]: 34.37%
- HEMOGLOBIN [1]: 13.8 G/DL
- LEUKOCYTE COUNT [1]: 11.83 x10E3/uL
- LYMPHOCYTE [1]: 86.33%
- MEAN CORPUSCULAR HEMOGLOBIN [1]: 25.63 pg
- MEAN CORPUSCULAR HEMOGLOBIN CONCENTRATION [1]: 40.2 G/DL
- MEAN CORPUSCULAR VOLUME [1]: 63.7 fL
- MONOCYTE [1]: 0.67%
- NEUTROPHIL [1]: 12%
- NUCLEATED RED BLOOD CELLS [1]: 0.33 /100WBC
- PLATELET COUNT [1]: 1164.67 x10E3/uL
- ALANINE AMINOTRANSFERASE [1]: 60.33 u/L
- ALBUMIN [1]: 4.3 G/DL
- ALKALINE PHOSPHATASE [1]: 309.33 u/L
- ASPARTATE AMINOTRANSFERASE [1]: 90 u/L
- BLOOD UREA NITROGEN [1]: 14.33 mg/dL
- CARBON DIOXIDE [1]: 25.33 mmol/L
- CHLORIDE [1]: 102 MEQ/L
- CHOLESTEROL [1]: 88 mg/dL
- CREATINE PHOSPHOKINASE [1]: 214.67 u/L
- CREATININE [1]: 0.15 mg/dL
- GLUCOSE [1]: 154.33 mg/dL
- LACTATE DEHYDROGENASE [1]: 252.33 u/L
- LIPASE [1]: 9 u/L
- PHOSPHORUS [1]: 13.47 mg/dL
- POTASSIUM [1]: 6.79 MEQ/L
- SODIUM [1]: 146.9 MEQ/L
- TOTAL BILIRUBIN [1]: 0.2 mg/dL
- TOTAL PROTEIN [1]: 6 G/DL
- URIC ACID [1]: 1.6 mg/dL
- ABSOLUTE BASOPHIL [2]: 0 CELLS/uL
- ABSOLUTE EOSINOPHIL [2]: 0 CELLS/uL
- ABSOLUTE LYMPHOCYTE [2]: 9506.33 CELLS/uL
- ABSOLUTE MONOCYTE [2]: 133 CELLS/uL
- ABSOLUTE SEGMENTED NEUTROPHIL [2]: 1294 CELLS/uL
- BASOPHIL [2]: 0%
- EOSINOPHIL [2]: 0%
- ERYTHROCYTE COUNT [2]: 5.45 x10E6/uL
- HEMATOCRIT [2]: 35.03%
- HEMOGLOBIN [2]: 13.53 G/DL
- LEUKOCYTE COUNT [2]: 10.93 x10E3/uL
- LYMPHOCYTE [2]: 87%
- MEAN CORPUSCULAR HEMOGLOBIN [2]: 24.9 pg
- MEAN CORPUSCULAR HEMOGLOBIN CONCENTRATION [2]: 38.67 G/DL
- MEAN CORPUSCULAR VOLUME [2]: 64.33 fL
- MONOCYTE [2]: 1.33%
- NEUTROPHIL [2]: 11.67%
- NUCLEATED RED BLOOD CELLS [2]: 2 /100WBC
- PLATELET COUNT [2]: 1237.33 x10E3/uL
- ALANINE AMINOTRANSFERASE [2]: 56 u/L
- ALBUMIN [2]: 4.23 G/DL
- ALKALINE PHOSPHATASE [2]: 398.67 u/L
- ASPARTATE AMINOTRANSFERASE [2]: 78 u/L
- BLOOD UREA NITROGEN [2]: 15 mg/dL
- CARBON DIOXIDE [2]: 27 mmol/L
- CHLORIDE [2]: 102.33 MEQ/L
- CHOLESTEROL [2]: 73.67 mg/dL
- CREATINE PHOSPHOKINASE [2]: 195.33 u/L
- CREATININE [2]: 0.19 mg/dL
- GLUCOSE [2]: 148.33 mg/dL
- LACTATE DEHYDROGENASE [2]: 106 u/L
- LIPASE [2]: 8.33 u/L
- PHOSPHORUS [2]: 12.73 mg/dL
- POTASSIUM [2]: 6.57 MEQ/L
- SODIUM [2]: 147 MEQ/L
- TOTAL BILIRUBIN [2]: 0.2 mg/dL
- TOTAL PROTEIN [2]: 6.1 G/DL
- URIC ACID [2]: 1.2 mg/dL
- ABSOLUTE BASOPHIL [3]: 0 CELLS/uL
- ABSOLUTE EOSINOPHIL [3]: 39 CELLS/uL
- ABSOLUTE LYMPHOCYTE [3]: 11981 CELLS/uL
- ABSOLUTE MONOCYTE [3]: 301 CELLS/uL
- ABSOLUTE SEGMENTED NEUTROPHIL [3]: 1579 CELLS/uL
- BASOPHIL [3]: 0%
- EOSINOPHIL [3]: 0.33%
- ERYTHROCYTE COUNT [3]: 5.38 x10E6/uL
- HEMATOCRIT [3]: 34.23%
- HEMOGLOBIN [3]: 13.3 G/DL
- LEUKOCYTE COUNT [3]: 13.9 x10E3/uL
- LYMPHOCYTE [3]: 85.67%
- MEAN CORPUSCULAR HEMOGLOBIN [3]: 24.7 pg
- MEAN CORPUSCULAR HEMOGLOBIN CONCENTRATION [3]: 38.83 G/DL
- MEAN CORPUSCULAR VOLUME [3]: 63.7 fL
- MONOCYTE [3]: 2.33%
- NEUTROPHIL [3]: 11.67%
- NUCLEATED RED BLOOD CELLS [3]: 1 /100WBC
- PLATELET COUNT [3]: 1269.67 x10E3/uL
- ALANINE AMINOTRANSFERASE [3]: 53.33 u/L
- ALBUMIN [3]: 3.63 G/DL
- ALKALINE PHOSPHATASE [3]: 412 u/L
- ASPARTATE AMINOTRANSFERASE [3]: 76.33 u/L
- BLOOD UREA NITROGEN [3]: 14.33 mg/dL
- CARBON DIOXIDE [3]: 26 mmol/L
- CHLORIDE [3]: 101.33 MEQ/L
- CHOLESTEROL [3]: 93 mg/dL
- CREATINE PHOSPHOKINASE [3]: 193.67 u/L
- CREATININE [3]: 0.18 mg/dL
- GLUCOSE [3]: 142.67 mg/dL
- LACTATE DEHYDROGENASE [3]: 154 u/L
- LIPASE [3]: 10.67 u/L
- PHOSPHORUS [3]: 12.17 mg/dL
- POTASSIUM [3]: 6.36 MEQ/L
- SODIUM [3]: 144.1 MEQ/L
- TOTAL BILIRUBIN [3]: 0.17 mg/dL
- TOTAL PROTEIN [3]: 5.57 G/DL
- URIC ACID [3]: 1.23 mg/dL
- ABSOLUTE BASOPHIL [4]: 0 CELLS/uL
- ABSOLUTE EOSINOPHIL [4]: 100.67 CELLS/uL
- ABSOLUTE LYMPHOCYTE [4]: 12538 CELLS/uL
- ABSOLUTE MONOCYTE [4]: 97.33 CELLS/uL
- ABSOLUTE SEGMENTED NEUTROPHIL [4]: 1764 CELLS/uL
- BASOPHIL [4]: 0%
- EOSINOPHIL [4]: 0.67%
- ERYTHROCYTE COUNT [4]: 4.84 x10E6/uL
- HEMATOCRIT [4]: 29.03%
- HEMOGLOBIN [4]: 11.63 G/DL
- LEUKOCYTE COUNT [4]: 14.5 x10E3/uL
- LYMPHOCYTE [4]: 86.67%
- MEAN CORPUSCULAR HEMOGLOBIN [4]: 24.07 pg
- MEAN CORPUSCULAR HEMOGLOBIN CONCENTRATION [4]: 40.13 G/DL
- MEAN CORPUSCULAR VOLUME [4]: 60.03 fL
- MONOCYTE [4]: 0.67%
- NEUTROPHIL [4]: 12%
- NUCLEATED RED BLOOD CELLS [4]: 0 /100WBC
- PLATELET COUNT [4]: 1313.67 x10E3/uL
- ALANINE AMINOTRANSFERASE [4]: 73.67 u/L
- ALBUMIN [4]: 3.63 G/DL
- ALKALINE PHOSPHATASE [4]: 318 u/L
- ASPARTATE AMINOTRANSFERASE [4]: 113.67 u/L
- BLOOD UREA NITROGEN [4]: 18 mg/dL
- CARBON DIOXIDE [4]: 29.33 mmol/L
- CHLORIDE [4]: 98.67 MEQ/L
- CHOLESTEROL [4]: 97.33 mg/dL
- CREATINE PHOSPHOKINASE [4]: 403.33 u/L
- CREATININE [4]: 0.19 mg/dL
- GLUCOSE [4]: 144 mg/dL
- LACTATE DEHYDROGENASE [4]: 612.33 u/L
- LIPASE [4]: 10.67 u/L
- PHOSPHORUS [4]: 13.33 mg/dL
- POTASSIUM [4]: 5 MEQ/L
- SODIUM [4]: 136.53 MEQ/L
- TOTAL BILIRUBIN [4]: 0.1 mg/dL
- TOTAL PROTEIN [4]: 5.57 G/DL
- URIC ACID [4]: 1.7 mg/dL
